Four compounds from patent publication EP2739262B1, “USE OF A CB1 RECEPTOR ANTAGONIST AS A WHITENING AND/OR ANTI-BROWNING AGENT FOR KERATIN MATERIAL” (L'OREAL, priority 2011, dated 2013) can be followed below.

Read-outs that look alike come from different tables or passages of the source.

The subject of test [1] is mélanocytes épidermiques humains normaux (NHEM). As to the kind of experiment: Melanin content of melanocytes (spectrophotometry at 450 nm). It counts as cell-based. The conditions noted are these: result in words; for quantité de mélanine dans les mélanocytes (NHEM): via the CB1 receptor. The procedure:
Des mélanocytes épidermiques humains normaux (NHEM) isolés de prépuce et fournis par Promocell (Heidelberg, Allemagne), sont cultivés pendant 24h à 37°C dans une atmosphère humide à 5% de CO2 dans un milieu de culture adapté M2 (Promocell).
L'AEA et les autres composés sont ajoutés directement dans le milieu de culture. 24h après chaque traitement, la viabilité des cellules a été mesurée par l'utilisation du colorant d'exclusion bleu Trypan (Maccarone et al., 2003).
Le mAEA et l'AEA sont testés in vitro à une concentration de 1 µM et comparés. Le mAEA est aussi utilisé à cette concentration quand il est utilisé en combinaison avec le SR1 à 0,1 µM.
La quantité en mélanine présente dans les cellules NHEM est mesurée selon une méthode connue de l'homme du métier (Xiao et al., Arch Dermatol Res 2007; 299 : 245-57). Selon cette méthode, les cellules NHEM sont traitées à la trypsine et lavées deux fois avec un tampon phosphate salin. Ensuite les échantillons sont resuspendus dans 200 µl d'eau MilliQ et 1 ml d'un mélange éthanol : éther (1:1, vol/vol) est ajouté pour éliminer les substances opaques autres que la mélanine. Après 15 minutes, les échantillons sont centrifugés à 600g pendant 5 minutes. Le culot est séché à l'air et dissout dans 200 µl de soude 1N. Les échantillons sont ensuite chauffés à 80°C pendant une heure et refroidis.
La quantité de mélanine est déterminée par spectrophotométrie à 450 nm en utilisant les contrôles standards de mélanine fournis par Sigma Chemical Co., de façon à vérifier la gamme de linéarité de l'essai. La quantité de mélanine est exprimée par rapport au contrôle.
Les résultats donnés sont les moyennes avec leurs écarts type de 3 essais indépendants, chacun réalisé en triplicata. Ils ont été comparés par analyse de variance (ANOVA).

Test [2] concerns epidermes reconstruits pigmentés (ERP). The test is described as follows: Depigmenting effect on reconstructed pigmented epidermis (ERP): melanin quantified by image analysis of Fontana Masson stained sections. It counts as cell-based, humains. To be noted: for production de mélanine dans les épidermes pigmentés reconstruits: result in words. The procedure: Des épidermes pigmentés sont reconstruits sur un support collagénique (BPER) à l'aide de mélanocytes et kératinocytes humains normaux.
Les épidermes sont obtenus après 8 jours de reconstruction, les mélanocytes choisis sont de phototype estimé IV.1
Certains épidermes sont traités quotidiennement par le placebo, d'autres par le produit à tester […] à différentes concentrations (0,1 µM et 0,5µM).
Le produit à tester est évalué à deux concentrations en comparaison à son solvant seul (placebo) et à un actif dépigmentant de référence, le lucinol à 500µM. Les épidermes reconstruits ainsi traités sont irradiés ou non avec des UV.^2
Chaque condition expérimentale est réalisée en quadruplicat.
La qualité histologique des épidermes après traitement est évaluée sur coupes histologiques après coloration HES afin de déterminer l'impact du traitement sur les épidermes. Aussi la physiologie des mélanocytes est étudiée pour détecter une éventuelle mélano-cytotoxicité. Si aucune altération histologique ni aucun effet mélano-toxique du produit évalué n'est révélé, une quantification de la pigmentation est effectuée par quantification de la mélanine sur coupes histologiques par analyse d'images
Une quantification de la pigmentation par quantification microscopique de la mélanine est alors réalisée et permet d'objectiver une activité propigmentante du composé à tester.
La mélanine présente dans l'épiderme est colorée sur coupes histologiques (coloration Fontana Masson) puis quantifiée par analyse d'images. Pour cela, chaque épiderme est photographié sur toute sa largeur à l'aide d'un microscope. Environ 10 images sont acquises par épiderme (lumière blanche, grossissement X20).
La surface occupée par la mélanine est quantifiée à l'aide d'un logiciel d'analyse d'image développé à façon. Brièvement, chaque image est segmentée en 4 zones selon leur couleur (lumière, stratum corneum, épiderme vivant et BPER). La mélanine présente dans l'épiderme sous forme de grains noirs est seuillée comme étant la zone la plus sombre de l'épiderme sur le plan rouge. Les pixels occupés par la mélanine dans l'épiderme entier ou les couches vivantes sont ensuite quantifiés.
Cette quantification rend compte de la surface occupée par la mélanine ainsi que de la localisation moyenne de la mélanine dans l'épiderme.
Les résultats ci-dessous sont exprimés en pourcentage de stimulation relative par rapport au témoin cultivé en milieu de co-culture standard.

As to `CCCCC/C=C\C/C=C\C/C=C\C/C=C\CCCC(=O)NCCO` [AEA, N-arachidonoylethanolamine], in test [1], the “quantité de mélanine dans les mélanocytes (NHEM)” value is on record as “augmentent de manière significative la quantité de mélanine”.
`CCCCc1ccc(O)cc1O` [Lucinol]: in test [2] (light or radiation study, 360 h, with UV irradiation, 50µM 150mJ/cm^2 UVB SYST D15, irradiated DMSO = 131,914894, read-out: mélanine, % par rapport au témoin (DMSO 1/1000 = 100)), the activity at 50 µM amounted to 31.9%. Moreover, the activity at 30 µM in test [2] (light or radiation study, 408 h, without UV irradiation, 30µM SYST D17, read-out: mélanine, % par rapport au témoin (DMSO 1/1000 = 100)) came to 10.5%.
Take `Cc1c(C(=O)NN2CCCCC2)nn(-c2ccc(Cl)cc2Cl)c1-c1ccc(Cl)cc1` [SR141716, 5-(4-Chlorophenyl)-1-(2,4-dichloro-phenyl)-4-methyl-N-(piperidin-1-yl)-1H-pyrazole-3-carboxamide]: the activity at 0.1 µM is 76.6% in test [2] (light or radiation study, 360 h, with UV irradiation, 0,1µM 150mJ/cm^2 UVB SYST D15, irradiated DMSO = 131,914894, read-out: mélanine, % par rapport au témoin (DMSO 1/1000 = 100)) and 64.5% in test [2] (light or radiation study, 408 h, without UV irradiation, 0,1µM SYST D17, read-out: mélanine, % par rapport au témoin (DMSO 1/1000 = 100)). Also, the activity at 0.5 µM in test [2] (light or radiation study, 360 h, with UV irradiation, 0,5µM 150mJ/cm^2 UVB SYST D15, irradiated DMSO = 131,914894, read-out: mélanine, % par rapport au témoin (DMSO 1/1000 = 100)) was 55.3%; in test [2] (light or radiation study, 408 h, without UV irradiation, 0,5µM SYST D17, read-out: mélanine, % par rapport au témoin (DMSO 1/1000 = 100)) it was 72.4%. Besides, the “production de mélanine dans les épidermes pigmentés reconstruits” value in test [2] (with UV irradiation, 0,1 and 0,5µM) was “diminution importante de la production de mélanine”; in test [2] (without UV irradiation, 0,1 and 0,5µM), “diminution importante de la production de mélanine”. Besides, in test [1] (SR1 0,1 µM with mAEA 1 µM), the “effets pro-pigmentants du mAEA” value was “empêche le mAEA d'avoir ses effets pro-pigmentants”.
As for `CCCCC/C=C\C/C=C\C/C=C\C/C=C\CCCC(=O)N[C@H](C)CO` [mAEA, R(+)-arachidonyl-1'-hydroxy-2'-propylamide], the “quantité de mélanine dans les mélanocytes (NHEM)” value in test [1] is on record as “augmentent de manière significative la quantité de mélanine”.
